The source of these data is ChEMBL document CHEMBL1201862, “PubChem BioAssay data set” (2004).

Holding throughout (test): DTP human tumour cell line panel, 48 h
For test [1], the system named is BT-549.
Test [2] has as its system CCRF-CEM.
Test [3] relates to HOP-62.
Test [4] concerns HOP-92.
In test [5] the test system is Hs-578T.
The test system of test [6] is IGROV-1.
The test system of test [7] is M14.
The test system of test [8] is MDA-MB-231.
Test [9] has as its system NCI-H226.
The subject of test [10] is NCI-H460.
The test system of test [11] is OVCAR-3.
In test [12] the test system is OVCAR-4.
In test [13] the test system is PC-3.
Test [14] has as its system SF-268.
Test [15] has as its system SF-295.
Test [16] concerns SK-MEL-28.
For test [17], the system named is SNB-75.
Test [18] concerns U-251.
Test [19] has as its system UACC-257.
The test system of test [20] is UACC-62.

One may read the GI50 as the concentration at which growth is held to half of that of the control.

Counter-ions that a name gives are not always drawn.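 Five concentrations, 48 hours, 96-well plates. GI50: concentration for 50% inhibition of growth.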 Calls of active or inactive are those of the source. Cut-off read from the data, not from the text of the source: active = GI50 up to about 1.1 µM and inactive = higher. Where a SMILES comes first, the peptide text is derived from it. [ ]: non-standard residue; d: D form. The star is where a group is joined. ξ: configuration not given here. ξD = NC(CC(=O)O)C(=O)O; Boc = CC(C)(C)OC(=O)*; Aib = CC(C)(N)C(=O)O; OBn = c1ccc(CO*)cc1

In the case of `COc1ccc(C(=O)Cn2c(C(C)=O)nc3ccccc32)cc1`, the GI50 in [1] was 8.45 µM (inactive); in test [2], 5.93 µM (inactive); in test [3] it was 12.1 µM (inactive); in [4], 12.7 µM (inactive); in test [5] it was 23.2 µM (inactive); in test [6] it was 6.73 µM (inactive). Further, the GI50 in test [7] was 17.5 µM (inactive); in test [8] it was 4.82 µM (inactive); in test [9], > 74 µM (inactive); in [10] it was 4.21 µM (inactive); in [11], 6.31 µM (inactive); in test [12], 14.2 µM (inactive). For the same compound, the GI50 in test [13] was 6.98 µM (inactive); in [14] it was > 64.9 µM (inactive); in test [15] it was 13.1 µM (inactive); in test [16], > 46.7 µM (inactive); in test [17] it was > 100 µM (inactive); in test [18] it was 3.74 µM (inactive). Besides, the GI50 was 30.4 µM (inactive) in test [19] and 6.89 µM (inactive) in test [20].

For `C[C@H](CCC(=O)O[C@@H]1CC[C@@]2(C)C(CC[C@H]3[C@@H]4CC[C@H]([C@H](C)CCc5nc6ccccc6[nH]5)[C@@]4(C)CC[C@@H]32)C1)[C@H]1CC[C@H]2[C@@H]3CCC4C[C@H](O)CC[C@]4(C)[C@H]3CC[C@]12C` (stereo not given in full), the GI50 in test [1] was > 100 µM (inactive); in test [2] it was > 100 µM (inactive); in [3] it was 25.7 µM (inactive); in test [4], > 100 µM (inactive); in test [5] it was 0.494 µM (active); in [6], 1.33 µM (inactive). For the same compound, the GI50 is > 100 µM (inactive) in test [7]; > 67.9 µM (inactive) in test [8]; > 100 µM (inactive) in [9]; 0.518 µM (active) in test [10]; > 100 µM (inactive) in test [11]; 0.501 µM (active) in test [12]. Further, the GI50 is > 100 µM (inactive) in [13]; 5.38 µM (inactive) in [14]; 16.7 µM (inactive) in [15]; > 100 µM (inactive) in test [16]; 3.97 µM (inactive) in test [17]; 36.7 µM (inactive) in test [18]. In addition, the GI50 in [19] and in test [20] was > 100 µM (inactive) each time.

Consider `CC(C)(C)OC(=O)NC(CC(=O)OCc1ccccc1)C(=O)NC(C)(C)C(N)=O` (stereo not given) (Boc-[ξD](OBn)-[Aib]-NH2), for which the GI50 in test [1], in test [2], in test [3], in test [4], in test [5] and in test [6] was > 100 µM (inactive) throughout. Also, the GI50 in [7], in test [8], in test [9], in test [10], in test [11] and in [12] was > 100 µM (inactive) throughout. Also, the GI50 in [13], in [14], in test [15], in [16], in [17] and in test [18] was > 100 µM (inactive) in each case. Further, the GI50 in test [19] was > 100 µM (inactive); in test [20] it was 0.0204 µM (active).

With `O=C1c2cccc3cccc(c23)C(=O)N1CCCNCCCCNCCCNCCCN1C(=O)c2cccc3cccc(c23)C1=O` [BISNAPHTHALIMIDOPROPYL SPERMIDINE TRIHYDROBROMIDE], the GI50 in [1] was 1.64 µM (inactive); in test [2] it was 0.111 µM (active); in [3] it was 1.1 µM (active); in test [4], 0.935 µM (active); in [5], 0.0378 µM (active); in [6] it was 0.472 µM (active). Besides, the GI50 in [7] is 1.52 µM (inactive); in test [8], 1.06 µM (active); in test [9] it was 0.505 µM (active); in test [10] it was 0.323 µM (active); in test [11], 0.662 µM (active); in test [12], 0.431 µM (active). Further, the GI50 is 0.535 µM (active) in test [13]; 0.282 µM (active) in [14]; 5.92 µM (inactive) in test [15]; 1.39 µM (inactive) in [16]; 0.319 µM (active) in test [17]; 0.338 µM (active) in test [18]. Also, the GI50 in test [19] is 1.56 µM (inactive); in [20], 0.458 µM (active).

For the compound `Cc1cc(N)c2ccccc2[n+]1CCCCCCCCCC[n+]1c(C)cc(N)c2ccccc21` [DEQUALINIUM CHLORIDE], the concentration for 50% growth inhibition (GI50) in test [1] is 1 µM (active); in test [2] it was 2.11 µM (inactive); in [3], 1.87 µM (inactive); in [4], 3.62 µM (inactive); in test [5], 1.96 µM (inactive); in [6] it was 1.72 µM (inactive). Moreover, the GI50 is 2.59 µM (inactive) in test [7]; 1.82 µM (inactive) in [8]; 3.37 µM (inactive) in [9]; 0.54 µM (active) in test [10]; 2.27 µM (inactive) in test [11]; 2.43 µM (inactive) in test [12]. Also, the GI50 is 1.07 µM (active) in test [13]; 1.39 µM (inactive) in test [14]; 1.28 µM (inactive) in [15]; 0.879 µM (active) in test [16]; 0.986 µM (active) in test [17]; 0.258 µM (active) in test [18]. Further, the GI50 in test [19] is 2.91 µM (inactive); in [20], 1.82 µM (inactive).
